# Source: patent EP4692089A1, “NITROGEN-CONTAINING HETEROCYCLIC COMPOUND AS AAK1 INHIBITOR” (Alicorn Pharmaceutical Co., Ltd., priority 2023, dated 2024)
# Legend:
# [1] = Pharmacokinetic test in SD rats; conditions: rat, plasma, po, 3 mg/kg
# Method: Experimental objective: The objective of this experimental example is to test the pharmacokinetic profile of compounds in SD rats.
# Route of administration: The animals were weighed before administration, and the dose was calculated based on their body weight. Administration was performed via intravenous injection and oral gavage.
# Blood collection time points: After administration, for IV group: 0.083 h, 0.25 h, 0.5 h, 1 h, 2 h, 4 h, 8 h, and 24 h; for PO group: 0.25 h, 0.5 h, 1 h, 2 h, 4 h, 6 h, 8 h, and 24 h. Blood was collected via the jugular vein, with approximately 0.2 mL collected for each sample. The blood samples were anticoagulated with K2-EDTA and placed on ice after collection.
# Plasma sample processing: After collection, the blood samples were placed on ice and centrifuged within 1 hour to separate plasma (centrifugation conditions: 6800g, 6 minutes, 2-8°C). The plasma samples were stored in a -80°C refrigerator before analysis.
# Result analysis: Pharmacokinetic parameters were calculated using Phoenix WinNonlin 7.0 based on the plasma concentration data at different time points.
# AAK1 (30-330) protein [2] = target: T1, AAK1 (30-330) protein (Homo sapiens, UniProt Q2M2I8); assay: CETSA test of binding ability to AAK1 protein (Western blot)
# T1 construct: (His)6x (N); TEV protease cleavage site (N); made in house; host or cells: Escherichia coli BL21(DE3)
# Method: Experimental objective: To detect the binding ability of compounds to AAK1 protein by means of a CETSA experiment.
# Background principle: The CETSA experiment is a molecular detection means for measuring the affinity between drugs and target proteins. […] When a candidate drug is co-incubated with a target protein, if the candidate drug is an inhibitor of AAK1, it can bind to AAK1. […] On the contrary, the stability of the AAK1 protein after heating will be poorer, and the amount of the detected protein will be lower. In this way, the binding ability of the drug to the target protein can be evaluated, which is used for the screening of AAK1 protein inhibitors.
# (§1) Expression of AAK1 (30-330) protein: The AAK1 sequence (residues 30-330) was cloned into the pET24N vector with an N-terminal (His)6x tag and a tobacco etch virus (TEV) protease cleavage site. The constructed vector was transformed into Escherichia coli BL21(DE3). When the bacteria were cultured with shaking to reach an OD value of 0.6, 1 mM IPTG was added. […] The bacterial cells were collected and subjected to ultrasonic disruption. The supernatant was obtained by centrifugation, and the protein was purified using Ni-NTA. After dialysis, the concentration and purity of the protein were determined.
# CETSA sample preparation: Samples were incubated with candidate drugs, control drugs, and control reagents separately for 30 minutes. Each group of samples was heated at approximately 10 pre-set temperature points. After being returned to room temperature, the samples were centrifuged at 20000 g, and the supernatants were collected. Protein samples were denatured by heating at 100°C for 10 minutes with a sample buffer. After the samples were returned to room temperature, Western blot detection was performed on them; the protein loading amount was controlled at 20 µg. […] The same operations were followed, and Western blot detection was conducted. Protein electrophoresis: The voltage for the stacking gel was set at 60 V, and that for the separating gel was set at 120 V. After electrophoresis, electrotransfer was initiated. Electrotransfer conditions were set at 250 mA for 2 h. Blocking with 5% BSA was performed for 1 h. A specific primary antibody was added, and incubation was carried out overnight at 4°C on a shaker. Washing with TBST was conducted 4 times, with 2.5 minutes each time. A secondary antibody was incubated on a shaker at room temperature for 1 h. Washing with TBST was conducted 4 times, with 2.5 minutes each time. ECL was used for development to detect the expression levels of AAK1 protein in different groups and at each temperature point. Western blot bands were processed and converted using Image J and GraphPad software to calculate EC50.
# [3] = system: streptozotocin (STZ)-induced peripheral neuropathic pain (DPNP) in diabetic rat models; assay: Efficacy test in diabetic peripheral neuropathic pain (DPNP), Von Frey pain threshold; assay type: in vivo, SD rats
# Method: Experimental methods: After the adaptation period, the rats were tested for baseline plantar pain threshold using the Von Frey (Up-Down method) before modeling. Subsequently, except for the blank control group, all other rats were fasted for 16 hours with free access to water and then intraperitoneally injected with streptozotocin for modeling (65 mg/kg; 2 mL/kg). One week after modeling, blood was collected from the tail tip to detect blood glucose levels after a 4-hour fast. Rats with blood glucose levels higher than 16.7 mmol/L were considered diabetic.
# AAK1 = target: T2, AAK1 (Homo sapiens, UniProt Q2M2I8); assay: Effect on AP2M1 phosphorylation in 293T cells co-transfected with AAK1 and AP2M1 (Western blot, anti-p-AP2M1); assay type: cell-based; conditions: p-AP2M1 level, incubated 3 h
# T2 construct: HA; expressed in transfected cells; host or cells: 293T cells
# Excerpt: Experimental objective: The objective of this test example is to determine the effect of compounds on AP2M1 phosphorylation in cells.
# Background principle: Adaptor-associated kinase 1 (AAK1), also known as AP2-associated kinase 1, is a 104 kDa serine/threonine kinase. AAK1 interacts with the adaptor protein 2 (AP2) complex and phosphorylates the threonine residue in the micro-subunit of AP2 (AP2M1), thereby increasing its binding affinity for certain tyrosine-based or dileucine-based sorting signals of some membrane receptors. The inhibitory effect of compounds on AAK1 was evaluated by detecting the phosphorylation level of AP2M1 in cells, so as to screen candidate compounds.
# On the second day, each T25 flask was co-transfected with 16 µg of plasmids (1 µg of AAK1/HA/pIRES and 15 µg of Flag/AP2MI/pcDNA) using a Lip2000 transfection reagent. On the third day, the cells were digested and resuspended, centrifuged at 1000 rpm for 5 minutes, and then seeded into 24-well plates at 450 µl per well (2 × 10^5 cells/well). Gradient dilutions of the compounds to be tested were prepared, 50 µl was added to each well, mixed thoroughly, and incubated at 37°C for 3 h. DMSO was set as a control, and cells without plasmid transfection were set as a blank control. After incubation, the cells were collected and washed twice with PBS. The cells were lysed on ice for 30 minutes using a cell lysis buffer containing the protease inhibitor PMSF. The concentration of protein samples was determined using a BCA kit. Protein electrophoresis: The voltage for the stacking gel was set at 60 V, and that for the separating gel was set at 120 V. After electrophoresis, electrotransfer was initiated. Electrotransfer conditions were set at 250 mA for 2 h. Blocking with 5% BSA was performed for 1 h. A specific primary antibody, anti-p-AP2M1, was added, and incubation was carried out overnight at 4°C on a shaker. Washing with TBST was conducted 4 times, with 2.5 minutes each time. A secondary antibody was incubated on a shaker at room temperature for 1 h. Washing with TBST was conducted 4 times, with 2.5 minutes each time. ECL was used for development to detect the expression level of p-AP2M1. Western blot bands were processed and converted using Image J and GraphPad software to calculate IC50.
# IC50 (half maximal inhibitory concentration) refers to the half-inhibitory concentration of the measured antagonist. It can indicate the concentration of a certain drug or substance (inhibitor) that achieves half of the inhibition effect on certain biological processes (or certain substances involved in these processes, such as enzymes, cellular receptors, or microorganisms).
# [4] = Blood-brain distribution in DPNP model rats; conditions: 1 mg/kg
# Method: Experimental objective: This experiment aims to investigate the analgesic effect of test compounds on streptozotocin (STZ)-induced peripheral neuropathic pain (DPNP) in diabetic rat models and the brain-blood distribution of the compounds associated with the efficacy, via single oral gavage (ig.) administration.
# After successful modeling, the baseline plantar pain threshold of the rats was tested using the Von Frey (UP-Down method) as the baseline pain threshold before administration, and the rats were evenly grouped according to their pain thresholds. The groups included a blank control group, a model group, a positive control group (1 mg/kg), a Compound 26 (0.5 mg/kg) group, and a Compound 26 (1 mg/kg) group. The next day, the rats were administered the vehicle or corresponding drugs. At 2 h, 3 h, 4 h, 5 h, and 6 h after administration, the pain threshold of the plantar region on the affected side of rats was determined using Von Frey filaments to calculate the pain threshold improvement rate of the test compounds against neuropathic pain in diabetic rats, and to observe the time-effect relationship. After the experiment, rats from groups G3-G5 (numbers 1-3 per group) were sacrificed, and plasma and brain tissue samples were collected for testing.
# AAK1 (30-330) protein [5] = target: T1, AAK1 (30-330) protein; assay: AAK1 kinase assay (ADP generated, detected by HPLC); assay type: biochemical; conditions: 3.5 nM AAK1, 22 µM ATP, 25°C, 3 h
# Excerpt: Experimental objective: The objective of this test example is to test the effect of compounds on AAK1 kinase function.
# Background principle: AAK1 phosphorylates the threonine residue in the micro-subunit of AP2 (AP2M1). In this process, ATP provides phosphate groups to generate ADP. Therefore, the activity of AAK1 kinase can be evaluated by detecting the amount of ADP generated.
# as §1
# The reaction mixture was incubated in a metal bath at 25°C for 3 h. The reaction was terminated by adding 1% SDS, and the amount of ADP generated was detected by HPLC. IC50 values were calculated using GraphPad software.
# [6] = DPNP model rats, 6 h after intragastric administration
# T2 sequence (Q2M2I8 whole entry): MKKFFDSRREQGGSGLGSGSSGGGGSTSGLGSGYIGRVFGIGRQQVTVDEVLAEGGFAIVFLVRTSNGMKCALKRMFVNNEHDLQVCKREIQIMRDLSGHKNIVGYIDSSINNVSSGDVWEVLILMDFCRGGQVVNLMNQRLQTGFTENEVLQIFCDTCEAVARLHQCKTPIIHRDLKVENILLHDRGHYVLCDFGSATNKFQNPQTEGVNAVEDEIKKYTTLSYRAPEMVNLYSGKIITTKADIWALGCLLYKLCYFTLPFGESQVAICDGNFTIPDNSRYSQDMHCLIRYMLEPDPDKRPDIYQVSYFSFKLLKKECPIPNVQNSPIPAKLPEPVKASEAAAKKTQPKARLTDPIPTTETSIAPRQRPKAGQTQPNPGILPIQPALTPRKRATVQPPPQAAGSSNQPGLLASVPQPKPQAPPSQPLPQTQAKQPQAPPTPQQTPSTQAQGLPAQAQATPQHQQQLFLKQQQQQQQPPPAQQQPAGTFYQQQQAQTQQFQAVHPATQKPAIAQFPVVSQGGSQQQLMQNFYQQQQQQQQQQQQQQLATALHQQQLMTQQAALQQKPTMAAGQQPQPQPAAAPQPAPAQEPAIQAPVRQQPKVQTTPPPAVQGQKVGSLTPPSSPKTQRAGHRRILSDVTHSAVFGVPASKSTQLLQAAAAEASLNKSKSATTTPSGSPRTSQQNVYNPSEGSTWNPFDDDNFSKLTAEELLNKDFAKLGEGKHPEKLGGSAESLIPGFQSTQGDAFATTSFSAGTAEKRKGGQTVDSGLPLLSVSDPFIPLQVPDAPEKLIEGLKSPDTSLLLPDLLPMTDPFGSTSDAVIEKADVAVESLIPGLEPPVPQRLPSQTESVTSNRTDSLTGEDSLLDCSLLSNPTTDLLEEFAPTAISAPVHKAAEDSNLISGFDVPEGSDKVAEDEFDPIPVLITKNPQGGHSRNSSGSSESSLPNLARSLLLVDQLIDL
# T1 sequence (Q2M2I8 30-330): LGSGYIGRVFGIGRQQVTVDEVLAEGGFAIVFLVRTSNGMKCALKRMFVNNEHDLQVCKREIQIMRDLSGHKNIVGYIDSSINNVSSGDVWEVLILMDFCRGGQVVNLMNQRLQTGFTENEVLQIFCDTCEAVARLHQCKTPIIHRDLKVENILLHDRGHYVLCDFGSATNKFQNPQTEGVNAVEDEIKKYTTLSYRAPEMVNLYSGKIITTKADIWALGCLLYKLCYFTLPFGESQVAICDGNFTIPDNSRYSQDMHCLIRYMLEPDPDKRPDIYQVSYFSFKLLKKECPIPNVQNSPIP
compound,measurement,setting,value
"CC(C)C[C@](C)(N)COc1ccc(-c2ccnc(C(F)F)c2)nc1C(F)F [BMS-986176, reference compound]",AUC(0-inf),[1],1160 ng·h/mL
same,AUC(0-t),[1],1070 ng·h/mL
same,Cmax,[1],85.6 ng/mL
same,MRT inf,[1],9.5 h
same,MRT last,[1],7.52 h
same,Tmax,[1],3.33 h
same,half-life,[1],6.32 h
same,EC50,AAK1 (30-330) protein [2],100 to 1000 nM
same,MWT (g) After modeling,"[3]; 1 mg/kg group, after modeling, before administration, x±s, n=5",7.00 ± 1.83 g
same,Pain threshold improvement rate 2h,"[3]; 1 mg/kg single ig., 2 h",64.51
same,MWT (g) 2h,"[3]; 1 mg/kg single ig., 2 h after administration, x±s, n=5",10.38 ± 2.59 g
same,Pain threshold improvement rate 3 h,"[3]; 1 mg/kg single ig., 3 h",42.24
same,MWT (g) 3 h,"[3]; 1 mg/kg single ig., 3 h after administration, x±s, n=5",7.51 ± 4.29 g
same,Pain threshold improvement rate 4h,"[3]; 1 mg/kg single ig., 4 h",20.35
same,MWT (g) 4 h,"[3]; 1 mg/kg single ig., 4 h after administration, x±s, n=5",5.06 ± 2.76 g
same,Pain threshold improvement rate 5 h,"[3]; 1 mg/kg single ig., 5 h",16.32
same,MWT (g) 5 h,"[3]; 1 mg/kg single ig., 5 h after administration, x±s, n=5",4.82 ± 1.07 g
same,Pain threshold improvement rate 6h,"[3]; 1 mg/kg single ig., 6 h",20.85
same,MWT (g) 6h,"[3]; 1 mg/kg single ig., 6 h after administration, x±s, n=5",4.63 ± 0.64 g
same,duration of analgesia,"[3]; 1 mg/kg, time after administration",≤ 4 h
same,IC50,AAK1,100 to 1000 nM
same,Brain tissue concentration,[4]; [6],26.94 ng/mL
same,Brain tissue concentration*,[4]; [6],296.36 ng/g
same,Plasma concentration,[4]; [6],34.38 ng/mL
same,Kp at 6 h,"[4]; rat, brain, po",8.62
same,IC50,AAK1 (30-330) protein [5],260 nM
"CC(C)C[C@](C)(N)COc1ccc(-c2c[nH]c3ncc(Cl)cc23)nc1C(F)F [Compound 44, (S)-1-{[6-(5-chloro-1H-pyrrolo[2,3-b]pyridin-3-yl)-2-(difluoromethyl)pyridin-3-yl]oxy}-2,4-dimethylpentan-2-amine]",EC50,AAK1 (30-330) protein [2],< 10 nM
same,IC50,AAK1,< 10 nM
same,IC50,AAK1 (30-330) protein [5],8.2 nM
"Cc1cnc2[nH]cc(-c3ccc(OC[C@@](C)(N)CC(C)C)c(C(F)F)n3)c2c1 [Compound 45, (S)-1-{[2-(difluoromethyl)-6-(5-methyl-1H-pyrrolo[2,3-b]pyridin-3-yl)pyridin-3-yl]oxy}-2,4-dimethylpentan-2-amine diformate]",EC50,AAK1 (30-330) protein [2],< 10 nM
same,IC50,AAK1,< 10 nM
same,IC50,AAK1 (30-330) protein [5],6.5 nM
